What was measured:
Format in all cases: biochemical
YecD [1] = molecular target: YecD (Escherichia coli, UniProt P0ADI7, G134C, form not given); assay: hydrolysis kinetics, chiral HPLC; conditions: standard assay: 50 mM Tris-HCl pH 8.0, 35 °C, racemic γ-lactam
YecD [2] = molecular target: YecD (Escherichia coli, UniProt P0ADI7, F23A/G134C, form not given); assay: hydrolysis kinetics, chiral HPLC; conditions: standard assay: 50 mM Tris-HCl pH 8.0, 35 °C, racemic γ-lactam
YecD [3] = molecular target: YecD (Escherichia coli, UniProt P0ADI7, V56A/G134C, form not given); assay: hydrolysis kinetics, chiral HPLC; conditions: standard assay: 50 mM Tris-HCl pH 8.0, 35 °C, racemic γ-lactam
YecD (Escherichia coli, UniProt P0ADI7, V56A/G134C, form not given), sequence (P0ADI7 whole entry V56A/G134C, form open): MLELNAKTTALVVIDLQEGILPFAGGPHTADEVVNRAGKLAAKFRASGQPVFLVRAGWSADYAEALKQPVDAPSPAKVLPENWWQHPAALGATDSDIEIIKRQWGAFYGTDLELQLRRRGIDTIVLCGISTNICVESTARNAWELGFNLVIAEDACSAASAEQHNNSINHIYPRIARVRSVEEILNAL

YecD [4] = molecular target: YecD (Escherichia coli, UniProt P0ADI7, V56I/W104E/G134C, form not given); assay: hydrolysis kinetics, chiral HPLC; conditions: standard assay: 50 mM Tris-HCl pH 8.0, 35 °C, racemic γ-lactam
YecD (Escherichia coli, UniProt P0ADI7, V56I/W104E/G134C, form not given), sequence (P0ADI7 whole entry V56I/W104E/G134C, form open): as the sequence (P0ADI7 whole entry V56A/G134C, form open) above, with A56I, W104E counted along it

YecD [5] = molecular target: YecD (Escherichia coli, UniProt P0ADI7, W104F/G134C, form not given); assay: hydrolysis kinetics, chiral HPLC; conditions: standard assay: 50 mM Tris-HCl pH 8.0, 35 °C, racemic γ-lactam
YecD (Escherichia coli, UniProt P0ADI7, W104F/G134C, form not given), sequence (P0ADI7 whole entry W104F/G134C, form open): as the sequence (P0ADI7 whole entry V56A/G134C, form open) above, with A56V, W104F counted along it

YecD [6] = molecular target: YecD (Escherichia coli, UniProt P0ADI7, W104A/G134C, form not given); assay: hydrolysis kinetics, chiral HPLC; conditions: standard assay: 50 mM Tris-HCl pH 8.0, 35 °C, racemic γ-lactam
YecD (Escherichia coli, UniProt P0ADI7, W104A/G134C, form not given), sequence (P0ADI7 whole entry W104A/G134C, form open): as the sequence (P0ADI7 whole entry V56A/G134C, form open) above, with A56V, W104A counted along it

YecD [7] = molecular target: YecD (Escherichia coli, UniProt P0ADI7, W104Y/G134C, form not given); assay: hydrolysis kinetics, chiral HPLC; conditions: standard assay: 50 mM Tris-HCl pH 8.0, 35 °C, racemic γ-lactam
YecD (Escherichia coli, UniProt P0ADI7, W104Y/G134C, form not given), sequence (P0ADI7 whole entry W104Y/G134C, form open): as the sequence (P0ADI7 whole entry V56A/G134C, form open) above, with A56V, W104Y counted along it

RutB = molecular target: T1, RutB (Escherichia coli, UniProt P75897); assay: γ-lactamase activity screen, chiral HPLC; conditions: 50 mM Tris-HCl pH 8.0, 35 °C, 4.6 mM racemic γ-lactam
T1 sequence (P75897 1-230): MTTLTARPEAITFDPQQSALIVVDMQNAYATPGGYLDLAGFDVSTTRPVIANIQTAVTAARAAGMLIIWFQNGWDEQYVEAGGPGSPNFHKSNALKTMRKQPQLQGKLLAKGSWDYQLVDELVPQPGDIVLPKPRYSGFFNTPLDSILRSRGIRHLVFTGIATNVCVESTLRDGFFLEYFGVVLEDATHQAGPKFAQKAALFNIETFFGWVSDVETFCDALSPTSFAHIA

YecD (Escherichia coli, UniProt P0ADI7, G134C, form not given), sequence (P0ADI7 whole entry G134C, form open): as the sequence (P0ADI7 whole entry V56A/G134C, form open) above, with A56V counted along it
YecD (Escherichia coli, UniProt P0ADI7, F23A/G134C, form not given), sequence (P0ADI7 whole entry F23A/G134C, form open): as the sequence (P0ADI7 whole entry V56A/G134C, form open) above, with F23A, A56V counted along it

Km (YecD [1]): 72 ± 4 mM
Km (YecD [2]): 67 ± 4 mM
Km (YecD [3]): 70 ± 3 mM
Km (YecD [4]): 16 ± 2 mM
Km (YecD [5]): 74 ± 3 mM
Km (YecD [6]): 79 ± 3 mM
Km (YecD [7]): 36 ± 3 mM
SMILES: O=C1N[C@@H]2C=C[C@H]1C2 (racemic) [( +) γ-lactam, 2-azabicyclo [2.2.1] hept-5-en-3-one]
γ-lactamase activity screen, chiral HPLC (RutB): Screening for ( +) γ-lactamase activity revealed that only RutB exhibited this catalytic function
